These results are taken from publication PMC2775441 (Pediatric blood & cancer, 2009).

Marks after values point to notes of the source that are not given here.

The conditions of series [1]: adults, interval between successive doses less than 7 days; ref [20]; cited from earlier work.
A short description of series [2]: Phase I dose escalation: dose-limiting toxicity, MTD and adverse events. The following applies: human, in vivo.
Series [3] concerns CYP3A4. The following applies: ref [33], [39]; cited from earlier work.
In series [4] the test system is refractory pediatric central nervous system tumors. The series is described as follows: Tumor response by neuro-imaging. The class given is in vivo, human.
For series [5] the following is noted: adults with solid tumors, ref [16], [18], [23]–[25], [30], cited from earlier work.
A short description of series [6]: Plasma pharmacokinetics of SU5416 and its metabolites. The following applies: for half-life: human, plasma, iv. Type of series: in vivo, human.
For series [7] the following is noted: ref [11]; cited from earlier work.
Where [8] appears, read: Stratum I (no EIACD), 110 mg/m^2 IV, week 1, 13 patients, mean ± SD.
The mark [9] stands for this setting: Stratum I (no EIACD), 110 mg/m^2 IV, week 6, 10 patients, mean ± SD.
The mark [10] stands for this setting: Stratum I (no EIACD), 145 mg/m^2 IV, week 1, 6 patients, mean ± SD.
Setting [11] is: Stratum I (no EIACD), 145 mg/m^2 IV, week 6, 3 patients, mean ± SD.
The mark [12] stands for this setting: Stratum I (no EIACD), all doses IV, week 6, 13 patients, mean ± SD.
Setting [13] is: Stratum II (EIACD), 35 mg/m^2 IV, week 1, 1 patient.
[14] abbreviates: Stratum II (EIACD), 48 mg/m^2 IV, week 1, 2 patients, mean ± SD.
Setting [15] is: Stratum II (EIACD), 65 mg/m^2 IV, week 1, 6 patients, mean ± SD.
Setting [16] is: Stratum II (EIACD), all doses IV, week 1, 9 patients, mean ± SD.
Setting [17] is: Stratum I (no EIACD), SU5416 110 mg/m^2 IV, week 1, 13 patients, mean ± SD.
Setting [18] is: Stratum I (no EIACD), SU5416 110 mg/m^2 IV, week 6, 10 patients, mean ± SD.
Where [19] appears, read: Stratum I (no EIACD), SU5416 145 mg/m^2 IV, week 1, 6 patients, mean ± SD.
[20] abbreviates: Stratum I (no EIACD), SU5416 145 mg/m^2 IV, week 6, 3 patients, mean ± SD.
Where [21] appears, read: Stratum I (no EIACD), all SU5416 doses IV, week 1, 19 patients, mean ± SD.
Where [22] appears, read: Stratum I (no EIACD), all SU5416 doses IV, week 6, 13 patients, mean ± SD.
[23] abbreviates: Stratum II (EIACD), SU5416 35 mg/m^2 IV, week 1, 1 patient.
Setting [24] is: Stratum II (EIACD), SU5416 48 mg/m^2 IV, week 1, 2 patients, mean ± SD.
Setting [25] is: Stratum II (EIACD), SU5416 65 mg/m^2 IV, week 1, 6 patients, mean ± SD.
[26] abbreviates: Stratum II (EIACD), all SU5416 doses IV, week 1, 9 patients, mean ± SD.

For `Cc1cc(C)c(/C=C2\C(=O)Nc3ccccc32)[nH]1` [SU5416, semaxanib], the “increase of clearance upon repeated administration” value in series [1] is reported as “more than 50%”. For the same compound, the “most serious drug-related toxicities” value in series [2] was “grade 3 liver enzyme abnormalities, arthralgia and hallucinations”. Besides, the “role of CYP3A4 in elimination of SU5416” value in series [3] is recorded as “major isozyme catalyzing the initial oxidation”. Also, the “Stable Disease Duration (months)” value in series [4] (Pt 1, Glioblastoma Multiforme, Spinal Cord) turned out to be 5.3 months; in series [4] (Pt 3, Choroid Plexus Carcinoma, Cerebrum), 14.3 months; in series [4] (Pt 8, Glioblastoma Multiforme, Parietal lobe), 15.9 months; in series [4] (Pt 19, Astrocytoma, Anaplastic, Frontal lobe), 10.6 months; in series [4] (Pt 26, Astrocytoma, NOS, Supratentorial) it was 5.9 months. The “Change from baseline (%)” value in series [4] (Pt 1, Glioblastoma Multiforme, tumor size, 1.4 months from treatment) is given as 0%. The Tumor size in series [4] (Pt 8, Glioblastoma Multiforme, FLAIR, 2.7 months from treatment, baseline 32.7) came out at 35.5 cm^3; in series [4] (Pt 8, Glioblastoma Multiforme, FLAIR, 8.1 months from treatment, baseline 32.7), 29.1 cm^3; in series [4] (Pt 8, Glioblastoma Multiforme, FLAIR, 9.7 months from treatment, baseline 32.7) it was 23.9 cm^3; in series [4] (Pt 8, Glioblastoma Multiforme, FLAIR, 11.1 months from treatment, baseline 32.7), 30.5 cm^3; in series [4] (Pt 8, Glioblastoma Multiforme, FLAIR, 15.9 months from treatment, baseline 32.7), 28.9 cm^3; in series [4] (Pt 26, Astrocytoma, NOS, Enhancement, 2.6 months from treatment, baseline 28.1), 31.9 cm^2. In addition, the Tumor size in series [4] (Pt 26, Astrocytoma, NOS, Enhancement, 4.4 months from treatment, baseline 28.1) was 34.7 cm^2; in series [4] (Pt 26, Astrocytoma, NOS, Enhancement, 5.9 months from treatment, baseline 28.1), 34.7 cm^2. Further, the “Radiographic response after course 1: CR or PR (number of patients)” value worked out at 0 in series [4] (Stratum I, 16 evaluable) and 0 in series [4] (Stratum II, 6 evaluable). For the same compound, the “Radiographic response after course 1: PD (number of patients)” value in series [4] (Stratum I, 16 evaluable) is 10; in series [4] (Stratum II, 6 evaluable), 5. In addition, the “Radiographic response after course 1: PD (percent of evaluable patients)” value in series [4] (Stratum I, 16 evaluable) is given as 63%; in series [4] (Stratum II, 6 evaluable) it was 83%. In addition, the “Radiographic response after course 1: SD (number of patients)” value in series [4] (Stratum I, 16 evaluable) was 6; in series [4] (Stratum II, 6 evaluable), 1. For the same compound, the “Radiographic response after course 1: SD (percent of evaluable patients)” value in series [4] (Stratum I, 16 evaluable) is listed as 38%; in series [4] (Stratum II, 6 evaluable), 17%. The “patients with sustained (prolonged) stable disease of possible clinical benefit” value in series [4] (Stratum I, patients evaluable for response) is 4 of 16. Moreover, the objective responses entry in series [4] (either stratum) is “No objectives responses”. Moreover, the MTD in adults in series [5] (intravenously twice weekly) was 145 mg/m^2. In series [5], the “Dose-limiting toxicities in adults” value was “headache, nausea, and vomiting”. Moreover, the “CL (total body clearance)” value in series [6] (setting [8]) is listed as 28.7 ± 12.8 ^a liter/h/m^2; in series [6] (setting [9]), 38.0 ± 28.7 liter/h/m^2; in series [6] (setting [10]), 21.3 ± 11.5 liter/h/m^2; in series [6] (setting [11]), 26.1 ± 17.1 liter/h/m^2; in series [6] (setting [12]) it was 34.9 ± 24.9 liter/h/m^2; in series [6] (setting [13]), 33.1 liter/h/m^2. Further, the figures for the “CL (total body clearance)” value in series [6] (setting [14]), in series [6] (setting [15]) and in series [6] (setting [16]) were 48.0 ± 5.1 liter/h/m^2, 27.8 ± 11.4 liter/h/m^2 and 32.0 ± 13.1 liter/h/m^2, respectively. In addition, the “Vz (apparent volume of distribution)” value is recorded as 43.3 ± 20.3 liter/m^2 in series [6] (setting [8]); 65.5 ± 26.7 liter/m^2 in series [6] (setting [9]); 39.1 ± 24.8 liter/m^2 in series [6] (setting [10]); 37.2 ± 33.5 liter/m^2 in series [6] (setting [11]); 57.5 ± 34.6 liter/m^2 in series [6] (setting [12]); 23.5 liter/m^2 in series [6] (setting [13]). Also, the “Vz (apparent volume of distribution)” value in series [6] (setting [14]) is 74.3 ± 71.7 liter/m^2; in series [6] (setting [15]), 45.5 ± 26.7 liter/m^2; in series [6] (setting [16]), 47.1 ± 30.6 liter/m^2. The half-life (in general, the time needed for the level to fall by half in the phase considered) is 1.07 ± 0.9 h in series [6] (48 mg/m2, t1/2,z (terminal phase half-life), Stratum II (EIACD), 48 mg/m^2 IV, week 1, 2 patients, mean ± SD) and 1.13 ± 0.62 h in series [6] (65 mg/m2, t1/2,z (terminal phase half-life), Stratum II (EIACD), 65 mg/m^2 IV, week 1, 6 patients, mean ± SD). Further, the “penetration into the CSF” value in series [7] is “does not penetrate the CSF”.

On to `Cc1cc(C(=O)O)[nH]c1C=C1C(=O)Nc2ccccc21` [SU6595], for which the “Relative extent of metabolism (%), AUC(0-t) metabolite/parent: SU6595” value in series [6] (setting [17]) is 57.4 ± 36.4%; in series [6] (setting [18]), 72.9 ± 43.9%; in series [6] (setting [19]) it was 37.4 ± 25.3%; in series [6] (setting [20]) it was 72.4 ± 26.1%; in series [6] (setting [21]), 50.1 ± 33.2%; in series [6] (setting [22]), 72.8 ± 39.1%. Besides, the “Relative extent of metabolism (%), AUC(0-t) metabolite/parent: SU6595” value in series [6] (setting [23]) worked out at 55.2%; in series [6] (setting [24]), 26.4 ± 1.1%; in series [6] (setting [25]), 57.3 ± 20.4%; in series [6] (setting [26]) it was 48.1 ± 21.3%.

For the compound `Cc1cc(CO)[nH]c1/C=C1\C(=O)Nc2ccccc21` [SU9838], the “Relative extent of metabolism (%), AUC(0-t) metabolite/parent: SU9838” value in series [6] (setting [17]) is on record as 3.95 ± 1.59%; in series [6] (setting [18]), 4.41 ± 2.28%; in series [6] (setting [19]) it was 3.98 ± 2.13%; in series [6] (setting [20]), 5.24 ± 0.81%; in series [6] (setting [21]), 3.96 ± 1.68%; in series [6] (setting [22]), 4.59 ± 2.11%. For the same compound, the “Relative extent of metabolism (%), AUC(0-t) metabolite/parent: SU9838” value in series [6] (setting [23]) is on record as 2.44%; in series [6] (setting [24]), 4.07 ± 1.37%; in series [6] (setting [25]), 5.72 ± 3.41%; in series [6] (setting [26]), 4.82 ± 2.69%.
